Measurements published in patent US10851402B2, “Method for in vitro detection and monitoring of a disease by measuring disease-associated protease activity in extracellular vesicles” (Friedrich-Alexander-Universitaet Erlangen-Nuernberg, priority 2013, dated 2020).

Tests used:
[1] = test system: resting PBMC; assay: TNFα secretion of resting PBMC after incubation with EV; format: cell-based; settings: EV-producing cells incubated with the inhibitor; EV incubated with resting PBMC (6 hours)
Experimental: PBMC stimulation with EV and measurement of Cytokine Secretion. PBMC ([…]) were added to each well of a 96-well-U-bottom plate in a total volume of 200 μl (RPMI). 10 μl of exosome preparation from transfected cells (corresponding to 2×10^6 cells or one 10 cm dish) were added per well and […]. When indicated 10 μl PHA (positive control), 50 μM TAPI-1 (Peptides International), or 10 μM U0126 (MAPK-Inhibitor, Promega) were used. Cytokines in the supernatant (200 μl) were measured via the CBA (Cytometric Bead Array) Human Soluble Protein Flex Set System (BD Biosciences).
For confirmation we incubated EV with resting PBMC (6 hours) and measured TNFα release.

[2] = target: T1, TACE (Homo sapiens, UniProt P78536); assay: GFP-proTNF-RFP cleavage and endogenous TACE activity in Nef/mNAKC transfected 293T cells; format: cell-based; settings: exposure of cultured 293T cells to TAPI
T1 construct: endogenous in cells; host or cells: 293T cells transfected with Nef/mNAKC (TACE itself not transfected)
Experimental: Transfections into 293T cells and protein assays. Transient transfections into 293T cells as well as immunoprecipitations and immunoblots were performed as described previously (Baur et al., 1997; Witte et al., 2004; Wolf et al., 2008). In general 20 μg of cellular protein lysate and 10 μg of EV lysate were loaded per lane. The latter corresponded to the secretion from 2-4 mio 293T cells within 48 h. Endogenous TACE activity was measured using SensoLyte®520 TACE (α-Secretase) Activity Assay Kit from AnaSpec, according to the manufacturer's procedures. Cell lysates were generated from 293T cells 24 h after tranfection of Nef/mNAKC. […]
While TACE seemed to be activated by Nef/mNAKC, it was not clear whether and where the protease was functionally active. […] We constructed a GFP-proTNF-RFP fusion protein (G-proTNF-R; FIG. 5A), expecting that the full-length protein would give a yellow signal, which upon TACE-mediated cleavage would mature into prodomain-associated green (GFP) and TNFα-associated red (RFP) fluorescence. […]
In 293T cells the transfected G-proTNF-R construct gave a double positive (GFP/RFP) signal in FACS and a yellow staining in confocal images (FIGS. 5B and E). […] In addition, we measured an increased activity of endogenous TACE in Nef/mNAKC transfected 293T cells using a commercial, substrate-based activity assay (FIG. 20B). […]

T1 sequence (P78536 215-824): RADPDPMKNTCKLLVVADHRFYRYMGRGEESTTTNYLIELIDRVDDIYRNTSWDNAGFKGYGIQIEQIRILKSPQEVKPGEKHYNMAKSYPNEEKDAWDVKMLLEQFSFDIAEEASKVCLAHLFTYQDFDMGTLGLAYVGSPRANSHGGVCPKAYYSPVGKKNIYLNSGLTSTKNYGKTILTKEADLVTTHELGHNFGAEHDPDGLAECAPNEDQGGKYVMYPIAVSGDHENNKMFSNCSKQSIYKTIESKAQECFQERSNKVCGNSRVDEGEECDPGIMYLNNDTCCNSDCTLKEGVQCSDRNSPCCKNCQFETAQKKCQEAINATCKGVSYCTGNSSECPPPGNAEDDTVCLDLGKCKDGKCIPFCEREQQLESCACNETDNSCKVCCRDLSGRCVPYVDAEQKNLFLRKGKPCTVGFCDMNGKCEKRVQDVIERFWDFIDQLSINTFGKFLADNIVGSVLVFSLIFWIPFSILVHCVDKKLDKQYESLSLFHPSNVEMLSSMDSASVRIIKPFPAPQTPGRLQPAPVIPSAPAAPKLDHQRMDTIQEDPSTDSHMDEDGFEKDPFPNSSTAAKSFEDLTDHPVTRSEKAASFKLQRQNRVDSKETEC

N#CC(=C(/N)Sc1ccccc1N)/C(C#N)=C(\N)Sc1ccccc1N [U0126]
TNFα release [1]: significantly reduced

Oc1ccc2ccccc2c1SSc1c(O)ccc2ccccc12 [IPA-3]
TNFα release [1]: significantly reduced

CC(C)C[C@H](CC(=O)NO)C(=O)N[C@@H](Cc1ccc2ccccc2c1)C(=O)N[C@@H](C)C(=O)NCCN [TAPI]
TNFα release [1]: significantly reduced
effect of Nef/mNAKC and TACE on G-proTNF-R cleavage and endogenous TACE activity [2]: reversed
